“And” between values parts separate entries of the source, which are not always exact repeats. Equal entries are not always repeated. Where two headings read alike, the source gives them in different places. Peptide text beside a SMILES is read from it.
How the values were obtained:
α-2 antiplasmin = experiment: Antiplasmin assay (plasmin cleavage of S2251) in rabbit plasma during clot lysis experiments; format: in vivo
Protocol: Antiplasmin levels were monitored by the antiplasmin assay (Helena Labs, Beaumont, Tex.). This assay measures inhibition of plasmin cleavage of a chromogenic substrate S2251 (H-D Valyl-Leucyl-L-Lysine-p-nitroanilide dihydrochloride) obtained from Helena Labs. A typical reaction mixture contains 215 μL of 50 mM Tris buffer pH 7.4, 110 mM NaCl, 5 μL rabbit plasma, 15 μL plasmin (1 unit), and 15 μL of substrate S2251 (3.5 mM stock) in a total reaction volume of 250 μL. The generation of p-nitroaniline product is monitored at […].

fibrinogen [1] = details: rabbit, in vivo
Protocol: (§1) Fibrinogen concentration in dilute plasma is inversely proportional to the thrombin clotting of the plasma (S. Borgstrom, Acta Chir. Scand. 90:419 (1945); A. Clauss, Acta Haemat, 17:273 (1957); K. Jacobson, Scand. J. Clin. Lab. Med. 7:7 (1955). Plasma was diluted 1:10 and 200 μL of this solution added to 100 μL (10 units) of bovine thrombin. Clotting time was measured on a clinical fibrometer, and fibrinogen levels determined as mg/dL plasma.

tPA antigen = tPA antigen ELISA in rabbit plasma during clot lysis experiments; format: in vivo; details: with tPA
Protocol: Samples of rabbit plasma were assayed by a commercial ELISA assay from American Diagnostic Inc. (ADI), New York, N.Y. Several modifications are made to the ADI protocol, which include using 10 μL of untreated plasma sample to minimize background and spiking the standard curve with 10 μL rabbit plasma to equalize any salt effect that might result. The assay was standardized with mouse C127 cell tPA (Invitron, St. Louis, Mo.).
The tPA antigen levels were monitored hourly to determine if the increase in clot lysis is due to an extended tPA half-life. […] Antigen levels of tPA decreased after infusion is stopped, indicating normal clearance of the exogenous tPA.

[2] = system: jugular vein clot (tPA mediated clot lysis); experiment: Rabbit jugular vein thrombolysis model II: peptide coinfused with tPA; format: in vivo, rabbit (New Zealand White); details: tPA alone 0.125 mg/kg; standard curve 2 conditions (17% background lysis)
Protocol: In a second experiment the enhancer peptide was administered with tPA. […] Clot lysis standard curves were performed for varying doses of tPA from […] mouse cells (Invitron). […] To compare the data, standard curves were established for each procedure. A linear dose dependency is observed with both sets of data. […] The chosen dose of tPA (0.125 mg/kg) for the peptide experiments gave 17% and 27% lysis, respectively, for the two sets of experiments. This dose was chosen as the baseline for the peptide study so that an increase in clot lysis would be observable. Increases in clot lysis were evaluated by two methods. In the first method, fold increases in % clot lysis were calculated as follows: [formula] In the second method, the equivalent dose of tPA necessary to obtain the clot lysis observed with tPA and peptide was extrapolated from the appropriate standard curve. Fold increase in tPA dose was determined as follows: [formula] A dose response study was performed with the peptides using a constant tPA dose (FIG. 5). Three doses are tested: 1.85 mg/kg, 0.185 mg/kg and 0.0185 mg/kg, which correspond to molar ratios of peptide to tPA of 385, 38.5, and 3.85, respectively with weight ratios of enhancer peptide to tPA of 15:1, 1.5:1, and 0.15:1 respectively. […]

fibrinogen [3] = experiment: Fibrinogen level in rabbit plasma by thrombin clotting time during clot lysis experiments; details: enhancer peptide dose 0 mg/kg (tPA only)
Protocol: as §1

[4] = system: isolated clot in the rabbit jugular vein (tPA mediated clot lysis); experiment: Rabbit jugular vein thrombolysis model I: peptide added during clot formation, then tPA infusion; format: in vivo, rabbit (New Zealand White); details: tPA alone 0.125 mg/kg infused over 4 h; standard curve 1 conditions
Protocol: Two independent studies were performed using the rabbit jugular vein thrombolysis model described in D. Collen et al., J. Clin. Invest. 71:368 (1983), with minor modifications. The enhancer peptide was administered during clot formation prior to tPA administration in one set of experiments with the rabbit jugular vein thrombolysis model. The enhancer peptide produced a five-fold increase in the clot lysis obtained from infusion of 0.125 mg tPA/kg, which corresponds to the lysis observed by a six-fold increase in tPA dose.
Clot lysis standard curves were performed for varying doses of tPA from C127 mouse cells (Invitron). […] To compare the data, standard curves were established for each procedure. A linear dose dependency is observed with both sets of data. […] Increases in clot lysis were evaluated by two methods. In the first method, fold increases in % clot lysis were calculated as follows: [formula] […] Fold increase in tPA dose was determined as follows: [formula] […]
An isolated clot was formed in the rabbit jugular vein using bovine thrombin (Calbiochem, San Diego, Calif.) and ^125 I fibrinogen (Amersham, Arlington Heights, Ill.). […] Blood samples were taken every hour from the femoral vein, and clot lysis was measured by comparison of residual radioactivity in the clot at the end of 4 1/2 hours. […]

Row | α-2 antiplasmin levels (α-2 antiplasmin; all rabbit experiments, including those with increased clot lysis from enhancer peptide) | α-2 Antiplasmin (% of baseline) (α-2 antiplasmin; enhancer peptide dose 0.0185 mg/kg, with tPA) | α-2 Antiplasmin (% of baseline) (α-2 antiplasmin; enhancer peptide dose 0.185 mg/kg, with tPA) | α-2 Antiplasmin (% of baseline) (α-2 antiplasmin; enhancer peptide dose 1.85 mg/kg, with tPA) | α-2 Antiplasmin (% of baseline) (α-2 antiplasmin; enhancer peptide dose 9.25 mg/kg, with tPA) | Fibrinogen levels (fibrinogen [1]) | Fibrinogen (% of baseline) (fibrinogen [1]; 0.0185 mg/kg) | Fibrinogen (% of baseline) (fibrinogen [1]; 0.185 mg/kg) | Fibrinogen (% of baseline) (fibrinogen [1]; 1.85 mg/kg) | Fibrinogen (% of baseline) (fibrinogen [1]; 9.25 mg/kg) | Fibrinogen (% of baseline) (fibrinogen [1]; 18.5 mg/kg) | tPA Antigen 30 min. after Infusion (tPA antigen; enhancer peptide dose 0.0185 mg/kg) [mg/mL] | tPA Antigen 30 min. after Infusion (tPA antigen; enhancer peptide dose 0.185 mg/kg) [mg/mL] | Compound | clot lysis [2] [%] | α-2 Antiplasmin (% of baseline) (α-2 antiplasmin; enhancer peptide dose 0 mg/kg (tPA only)) | Fibrinogen (% of baseline) (fibrinogen [3]) | clot lysis [4]
1 | did not change | 87 +/- 7 % of baseline | 96 +/- 1 % of baseline | 86 +/- 8 % of baseline | 92 +/- 2 % of baseline | did not change | 100 % of baseline | 100 +/- 1 % of baseline | 100 +/- 1 % of baseline | 91 % of baseline | 91 +/- 13 % of baseline | 0 | 0 | CC[C@H](C)[C@H](NC(=O)[C@H](Cc1ccccc1)NC(=O)[C@@H](NC(=O)[C@H](CC(C)C)NC(=O)[C@H](Cc1ccccc1)NC(=O)[C@@H]1CCCN1C(=O)[C@H](CCCNC(=N)N)NC(=O)[C@H](CC(N)=O)NC(=O)[C@H](C)NC(=O)[C@H](CCCCN)NC(=O)[C@H](Cc1ccccc1)NC(=O)[C@@H](NC(=O)[C@@H](NC(=O)[C@H](CCCNC(=N)N)NC(=O)[C@H](CC(N)=O)NC(=O)[C@@H]1CCCN1C(=O)[C@H](CC(N)=O)NC(=O)[C@H](CC(C)C)NC(=O)[C@H](CO)NC(=O)[C@H](CCCNC(=N)N)NC(=O)CNC(=O)[C@H](C)N)C(C)C)[C@@H](C)O)C(C)C)C(=O)O [enhancer peptide] (H-AGRSLNPNRVTFKANRPFLVFI-OH) |  |  |  | 
2 |  |  |  |  |  |  |  |  |  |  |  |  |  | tPA: tissue plasminogen activator from C127 mouse cells (Invitron Lot #76-001-31395), control tPA for this study | 27 | 94 +/- 2 % of baseline | 100 % of baseline | 17% and 16 +/- 1%
